Laboratory results as given in patent US9556150B2, “Inhibitors of bruton's tyrosine kinase” (Hoffmann-La Roche Inc., priority 2013, dated 2017).

Biological target: Bruton's Tyrosine Kinase (BTK), inactivated state (Homo sapiens (Human), UniProt Q06187)
Assay: Bruton's Tyrosine Kinase (BTK) Inhibition TR-FRET (Time Resolved FRET) competition assay
Type: binding
Details: TR-FRET competition with Kinase Tracer 178, BTK-Eu complex, 18-24 h at 14° C.
Description: Bruton's Tyrosine Kinase (BTK) Inhibition TR-FRET (Time Resolved FRET) Assay
This BTK competition assay measures compound potency (IC50) for the inactivated state of Bruton's Tyrosine Kinase using FRET (Förster/Fluorescence Resonance Energy Transfer) technology. The BTK-Eu complex was incubated on ice one hour prior to use at a starting concentration of 50 nM BTK-Bioease™: 10 nM Eu-streptavidin (Perkin-Elmer Catalog#AD0062). The assay buffer consisted of 20 mM HEPES (pH 7.15), 0.1 mM DTT, 10 mM MgCl2, 0.5 mg/ml BSA with 3% Kinase Stabilizer (Fremont Biosolutions, Catalog #STB-K02). After 1 h, the reaction mixture from above was diluted 10 fold in assay buffer to make 5 nM BTK: 1 nM Eu-Streptavidin complex (donor fluorophore). 18 μl of a mixture of 0.11 nM BTK-Eu and 0.11 nM Kinase Tracer 178 (Invitrogen, Catalog #PV5593,) with BTK-Eu alone as no negative control, was then dispensed into 384-well flat bottom plates (Greiner, 784076). Compounds to be tested in assay were prepared as 10× concentrations and serial dilution in half-log increments was performed in DMSO so as to generate 10 point curves. To initiate the FRET reaction, compounds prepared as 10× stock in DMSO was added to the plates and the plates were incubated 18-24 h at 14° C.
After the incubation the plates were read on a BMG Pherastar Fluorescent plate reader (or equivalent) and used to measure the emission energy from the europium donor fluorophore (620 nm emission) and the FRET (665 nm emission). The negative control well values were averaged to obtain the mean minimum. The positive “no inhibitor” control wells were averaged to obtain the mean maximum. Percent of maximal FRET was calculated using following equation: % max FRET=100×[(FSR cmpd−FSR mean min)/(FSR mean max−FSR mean min)]
where FSR=FRET Signal ratio. % Max FRET curves were plotted in Activity Base (Excel) and the IC50(%), hill slope, z′ and % CV were determined. The mean IC50 and standard deviation will be derived from duplicate curves (singlet inhibition curves from two independent dilutions) using Microsoft Excel.
Representative compound data for this assay are listed below in Table II.

Chain of Bruton's Tyrosine Kinase (BTK), inactivated state (Q06187 whole entry): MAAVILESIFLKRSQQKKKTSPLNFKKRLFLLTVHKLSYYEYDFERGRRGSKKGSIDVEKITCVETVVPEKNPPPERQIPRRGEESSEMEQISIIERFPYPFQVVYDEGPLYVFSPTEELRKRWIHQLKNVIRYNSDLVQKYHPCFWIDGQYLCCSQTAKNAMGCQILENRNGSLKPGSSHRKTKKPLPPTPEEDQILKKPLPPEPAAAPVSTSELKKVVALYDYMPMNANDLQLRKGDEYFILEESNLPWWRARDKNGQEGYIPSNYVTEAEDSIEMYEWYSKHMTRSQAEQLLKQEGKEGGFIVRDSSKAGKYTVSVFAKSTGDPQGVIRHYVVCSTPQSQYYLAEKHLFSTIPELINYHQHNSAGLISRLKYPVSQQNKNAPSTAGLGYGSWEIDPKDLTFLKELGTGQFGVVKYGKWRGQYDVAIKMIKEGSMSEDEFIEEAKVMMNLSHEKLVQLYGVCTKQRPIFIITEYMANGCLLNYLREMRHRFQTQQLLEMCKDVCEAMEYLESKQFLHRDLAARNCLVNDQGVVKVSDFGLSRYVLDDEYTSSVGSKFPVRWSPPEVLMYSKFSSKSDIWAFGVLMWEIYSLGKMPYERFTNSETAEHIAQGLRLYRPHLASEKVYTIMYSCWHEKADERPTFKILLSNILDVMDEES

Compound	IC50 [nM]
Cc1cc(Oc2cccc(F)c2F)ccc1-n1ncc(C(=O)c2cc3cc(C(=O)N4CCOCC4)ccc3[nH]2)c1N [Example I-5]	2.3
Nc1c(C(=O)c2cc3cc(C(=O)N4CCOCC4)ccc3[nH]2)cnn1-c1ccc(Oc2ccccc2F)nc1 [Example I-9, {5-Amino-1-[6-(2-fluoro-phenoxy)-pyridin-3-yl]-1H-pyrazol-4-yl}-[5-(morpholine-4-carbonyl)-1H-indol-2-yl]-methanone]	220
Nc1c(C(=O)c2cc3cc(C(=O)N4CCOCC4)ccc3[nH]2)cnn1-c1ccc(Oc2cccc(F)c2F)nc1 [Example I-10, {5-Amino-1-[6-(2,3-difluoro-phenoxy)-pyridin-3-yl]-1H-pyrazol-4-yl}-[5-(morpholine-4-carbonyl)-1H-indol-2-yl]-methanone]	180
Cc1cc(Oc2ccccn2)ccc1-n1ncc(C(=O)c2cc3cc(C(=O)N4CCOCC4)ccc3[nH]2)c1N [Example I-11, {5-Amino-1-[2-methyl-4-(pyridin-2-yloxy)-phenyl]-1H-pyrazol-4-yl}-[5-(morpholine-4-carbonyl)-1H-indol-2-yl]-methanone]	200
Nc1c(C(=O)c2cc3cc(C(=O)N4CCOCC4)ccc3[nH]2)cnn1-c1ccc(Oc2cccc(F)c2F)cc1 [Example I-12, {5-Amino-1-[4-(2,3-difluoro-phenoxy)-phenyl]-1H-pyrazol-4-yl}-[5-(morpholine-4-carbonyl)-1H-indol-2-yl]-methanone]	13
Nc1c(C(=O)c2cc3cc(C(=O)N4CCOCC4)ccc3[nH]2)cnn1-c1ccc(Oc2cc(F)ccc2F)nc1 [Example I-13, {5-Amino-1-[6-(2,5-difluoro-phenoxy)-pyridin-3-yl]-1H-pyrazol-4-yl}-[5-(morpholine-4-carbonyl)-1H-indol-2-yl]-methanone]	530
Cc1cc(Oc2cccc(C#N)c2)ccc1-n1ncc(C(=O)c2cc3cc(C(=O)N4CCOCC4)ccc3[nH]2)c1N [Example I-18, 3-(4-{5-Amino-4-[5-(morpholine-4-carbonyl)-1H-indole-2-carbonyl]-pyrazol-1-yl}-3-methyl-phenoxy)-benzonitrile]	5.2
Cc1cc(Oc2cccc(C(C)(C)C)c2)ccc1-n1ncc(C(=O)c2cc3cc(C(=O)N4CCOCC4)ccc3[nH]2)c1N [Example I-19, {5-Amino-1-[4-(3-tert-butyl-phenoxy)-2-methyl-phenyl]-1H-pyrazol-4-yl}-[5-(morpholine-4-carbonyl)-1H-indol-2-yl]-methanone]	6.8
COc1ccc(-n2ncc(C(=O)c3cc4cc(C(=O)N5CCOCC5)ccc4[nH]3)c2N)c(C)c1 [Example I-20, [5-Amino-1-(4-methoxy-2-methyl-phenyl)-1H-pyrazol-4-yl]-[5-(morpholine-4-carbonyl)-1H-indol-2-yl]-methanone]	150
N#Cc1cc(Oc2cccc(F)c2F)ccc1-n1ncc(C(=O)c2cc3cc(C(=O)N4CCOCC4)ccc3[nH]2)c1N [Example I-21, 2-{5-Amino-4-[5-(morpholine-4-carbonyl)-1H-indole-2-carbonyl]-pyrazol-1-yl}-5-(2,3-difluoro-phenoxy)-benzonitrile]	> 100000
Nc1c(C(=O)c2cc3cc(C(=O)N4CCOCC4)ccc3[nH]2)cnn1-c1ccc(Oc2cccc(F)c2F)cc1Br [Example I-22, {5-Amino-1-[2-bromo-4-(2,3-difluoro-phenoxy)-phenyl]-1H-pyrazol-4-yl}-[5-(morpholine-4-carbonyl)-1H-indol-2-yl]-methanone]	1.3
Cc1cc(Oc2cccc(F)c2F)cc(C)c1-n1ncc(C(=O)c2cc3cc(C(=O)N4CCOCC4)ccc3[nH]2)c1N [Example I-24, {5-Amino-1-[4-(2,3-difluoro-phenoxy)-2,6-dimethyl-phenyl]-1H-pyrazol-4-yl}-[5-(morpholine-4-carbonyl)-1H-indol-2-yl]-methanone]	35

More lines, now with the values ahead:

IC50 [nM]	Compound
6.8	Nc1c(C(=O)c2cc3cc(C(=O)N4CCOCC4)ccc3[nH]2)cnn1-c1ccc(Oc2ccccc2)cc1 [Example I-1, [5-Amino-1-(4-phenoxy-phenyl)-1H-pyrazol-4-yl]-[5-(morpholine-4-carbonyl)-1H-indol-2-yl]-methanone]
4.6	Cc1cc(Oc2ccccc2F)ccc1-n1ncc(C(=O)c2cc3cc(C(=O)N4CCOCC4)ccc3[nH]2)c1N [Example I-2, {5-Amino-1-[4-(2-fluoro-phenoxy)-2-methyl-phenyl]-1H-pyrazol-4-yl}-[5-(morpholine-4-carbonyl)-1H-indol-2-yl]-methanone]
25	Cc1cc(Oc2ccccc2)ncc1-n1ncc(C(=O)c2cc3cc(C(=O)N4CCOCC4)ccc3[nH]2)c1N [Example I-3, [5-Amino-1-(4-methyl-6-phenoxy-pyridin-3-yl)-1H-pyrazol-4-yl]-[5-(morpholine-4-carbonyl)-1H-indol-2-yl]-methanone]
12	Nc1c(C(=O)c2cc3cc(C(=O)N4CCOCC4)ccc3[nH]2)cnn1-c1ccc(Oc2ccccc2)c(F)c1 [Example I-4, [5-Amino-1-(3-fluoro-4-phenoxy-phenyl)-1H-pyrazol-4-yl]-[5-(morpholine-4-carbonyl)-1H-indol-2-yl]-methanone]
43	Cc1cc(Oc2ccccc2)c(F)cc1-n1ncc(C(=O)c2cc3cc(C(=O)N4CCOCC4)ccc3[nH]2)c1N [Example I-6, {2-[5-Amino-1-(5-fluoro-2-methyl-4-phenoxy-phenyl)-1H-pyrazole-4-carbonyl]-1H-indol-5-yl}-morpholin-4-yl-methanone]
2.6	Cc1cc(Oc2ccccc2)ccc1-n1ncc(C(=O)c2cc3cc(C(=O)N4CCOCC4)ccc3[nH]2)c1N [Example I-7, {2-[5-Amino-1-(2-methyl-4-phenoxy-phenyl)-1H-pyrazole-4-carbonyl]-1H-indol-5-yl}-morpholin-4-yl-methanone]
14.4	Nc1c(C(=O)c2cc3cc(C(=O)N4CCOCC4)ccc3[nH]2)cnn1-c1ccc(Oc2ccccc2)cc1F [Example I-8, [5-Amino-1-(2-fluoro-4-phenoxy-phenyl)-1H-pyrazol-4-yl]-[5-(morpholine-4-carbonyl)-1H-indol-2-yl]-methanone]
0.46	Nc1c(C(=O)c2cc3cc(C(=O)N4CCOCC4)ccc3[nH]2)cnn1-c1ccc(Oc2ccccc2)cc1Cl [Example I-14, [5-Amino-1-(2-chloro-4-phenoxy-phenyl)-1H-pyrazol-4-yl]-[5-(morpholine-4-carbonyl)-1H-indol-2-yl]-methanone]
0.82	Nc1c(C(=O)c2cc3cc(C(=O)N4CCOCC4)ccc3[nH]2)cnn1-c1ccc(Oc2ccccc2F)cc1Cl [Example I-15, {5-Amino-1-[2-chloro-4-(2-fluoro-phenoxy)-phenyl]-1H-pyrazol-4-yl}-[5-(morpholine-4-carbonyl)-1H-indol-2-yl]-methanone]
3.6	Cc1cc(Oc2cccc(Cl)c2)ccc1-n1ncc(C(=O)c2cc3cc(C(=O)N4CCOCC4)ccc3[nH]2)c1N [Example I-16, (2-{5-Amino-1-[4-(3-chloro-phenoxy)-2-methyl-phenyl]-1H-pyrazole-4-carbonyl}-1H-indol-5-yl)-morpholin-4-yl-methanone]
3.5	Cc1cc(Oc2cccc(Br)c2)ccc1-n1ncc(C(=O)c2cc3cc(C(=O)N4CCOCC4)ccc3[nH]2)c1N [Example I-17, (2-{5-Amino-1-[4-(3-bromo-phenoxy)-2-methyl-phenyl]-1H-pyrazole-4-carbonyl}-1H-indol-5-yl)-morpholin-4-yl-methanone]
